Measurements taken from patent US9107879B1, “Methods of increasing the cytotoxicity of chemotherapeutic agents with multisubstrate inhibitors of histone, protein-lys, polyamine acetylation, and polyamine metabolism” (Vanderbilt University, priority 2010, dated 2015).

Tests used:
[1] = test system: DU 145 prostate cancer cells; test: gamma-H2A.X immunofluorescence; type: cell-based; details: 8 hours, 5 nM camptothecin alone
Source text: The immuno fluorescence images on the left and right sides of the middle scheme illustrate this visually. […] Cells were fixed and stained with a rabbit antibody to the histone variant, γ-H2A.X, a marker for DNA double stranded breaks, followed by staining with a fluorescein (FITC)-tagged goat anti rabbit secondary antibody. Nuclei were stained with Hoescht 33345.

[2] = test system: MCF7 breast cancer cells; details: 1a increasing concentrations; camptothecin 5 nM 18 hour
Experimental: (A) [^3H]-thymidine incorporation into DNA of H358 cells (left panel) or MCF-7 cells (right panel) during a 6 hour pulse ending at the indicated time points after initiation of treatment. Treatments were 50 μM 1a alone, 5 nM camptothecin alone (CPT, 18 hours), 50 μM 1a+5 nm CPT (18 hours). Control cells were left untreated. (B) 2-day 96-well viability assays of H358 cells (left panel) or MCF-7 cells (right panel) grown in presence of increasing concentrations of 1a (continuous), with or without an 18-hour treatment with 5 nM camptothecin (CPT). Cell viability, represented as a percent of untreated cell viability (i.e., no 1a, no CPT), was determined 2 days post-start of treatment by the MTS bioconversion assay (MTS=(3-(4,5′-dimethylthiazol-2-yl)-5-(3-carboxymethoxylphenyl-2-(4-sulfophenyl)-2H-tetrazolium salt). Each data point represents the average of triplicate wells. Assays were carried out under conditions such that untreated cells remained in exponential growth. (C) [^3H]-thymidine incorporation into DNA of H358 cells carried out as in part “A”. Treatment consisted of 1a alone (50 μM), or cisplatin (2 μM, 1 hour, 15 minutes) alone or together with 1a (Panel 1); or UVC (40 J/m^2), alone or together with 1a (Panel 2); or 5-fluorouracil (5FU, 2 μM, 18 hours) alone or together with 1a (Panel 3), or Taxotere™ (5 nM, 18 hours), alone or together with 1a (Panel 4). Control cells were left untreated. Symbols are as follows: (-◯-) untreated control; (-●-) 50 μM 1a, (-∇-) drug or UVC alone; (-▾-) combination 1a+drug or UVC.
Viability was measured 3 days after the start of treatment and is expressed as a percentage of control (untreated) cell viability.
Each point is average of triplicates.
Date of exp: 7-17-2010; located p.21 in Hat notebook: KB-2 (2010-2011).
Cells were plated in 96-well plates (3000 cells per well) and incubated 18 hours with or without 5 nM camptothecin (Sigma, St Louis, Mo.). Triplicate wells were then treated with varying doses of 1a (from 0-50 μM). Control cells received neither 1a nor camptothecin. 2-day viability was determined by the MTS assay as previously (Saadatmandi et al., 2002, Cancer Gene Therapy, 9: 830-9) and expressed as a percentage of control cell viability.
The present inventors carried out 96-well viability assays as we have previously described (Saadatmandi et al, Cancer Gene Therapy (2002) 9:830-9), in which MCF7 breast cancer cells were plated at 3000 cells per well. After overnight attachment, triplicate wells were treated with increasing doses of inhibitor 1a. Control wells were left untreated. After 3 days, cell viability was measured by the MTS assay, which measures the bioconversion of an uncolored substrate to a colored formazan derivative, and is proportional to cell number. […]

[3] = test system: DLD-1 colon cancer cells; test: 96-well MTS viability assay; type: cell-based; details: 3 days
Experimental: Cells were plated in 96-well plates at 2000 cells per well and treated with the indicated doses of spd-3a. Cell viability was measured by the MTS assay 3 days later.
DLD-1 cells or H358 cells were plated in 96-well plates at 2000 cells per well and treated with the indicated doses of (A) spm-3 or (B) spm-2. (C) Cell viability was measured by the MTS assay 3 days later. Similar experiment using GT41 fibroblasts with spm2 or spm 3. Each assay point represents an average of duplicates.

[4] = 5 mM, approximately 10 mg/kg, twice per week for 3 weeks
Experimental: They injected a second set of 4 mice with 100 μl of spd-3a (5 mM, approximately 10 mg/kg, or about 0.25 mM initial blood concentration), twice per week for 3 weeks.

[5] = test system: H358 cells; test: nucleotide excision repair assay (thymidine dimer slot blot); type: cell-based; details: 40 J/m2 UVC then 50 μM 1a; within 24 hours (untreated cells 50%)
Experimental: Also shown are controls for no treatment (“c” minus 1a) or treatment with 1a only (“c” plus 1a). Each lane represents 60 μg protein. […] Each lane represents 60 μg protein.
For NER, a slot blot immunoassay was used to detect the loss of thymidine dimers from the DNA of UVC treated cells as previously described. An antibody specific for cyclobutane pyrimidine dimers, the major photoproduct produced by UVC treatment, was purchased from Kamiya Biomedical Co(Seattle, Wash.; anti-thymidine dimer, clone KTM53) and used at 1:40 dilution.
DNA repair can promote cell survival following DNA damage. Nucleotide excision repair (NER), which requires histone acetylation (Cazzalini et al., 2008, 36: 1713-22) removes bulky DNA adducts such as the intrastrand guanine-adenine crosslinks caused by cisplatin or the intrastrand thymidine dimers produced by UVC radiation. We assayed NER in the presence or absence of 50 μM 1a using an immunoblot analysis of thymidine dimers in cellular DNA prepared from cells at fixed times after exposure to 40 J/m^2UVC radiation. […] The results support a model in which acetylation of the core histones, accompanied by localized relaxation of chromatin structure, may be necessary to initiate DNA repair, possibly by allowing access of DNA to multiprotein repair complex involved in nucleotide excision repair, or by promoting recruitment of those factors. […]

CC[C@@]1(O)C(=O)OCc2c1cc1n(c2=O)Cc2cc3ccccc3nc2-1 [camptothecin]
DNA damage by γ-H2A.X staining, single agent [1]: minimal damage
2-day cumulative cell viability relative to untreated, single agent [2]: no effect

CC(=O)NCCSCC(=O)NCCCNCCCCNCCCN [spm-3]
suppression of cell growth and viability, single agent [3]: effective as single agents

CC(=O)NCCSCC(=O)NCCCNCCCCN [3a]
body weight [4]: did not lose weight
signs of toxicity ([4]; 4 mice): no signs of distress or illness

CC(C)(COP(=O)(O)OP(=O)(O)OC[C@H]1O[C@@H](n2cnc3c(N)ncnc32)[C@H](O)[C@@H]1OP(=O)(O)O)[C@@H](O)C(=O)NCCC(=O)NCCSCC(=O)NCCCNCCCCN [1a, spermidine[N1]-CoA]
decrease of thymidine dimers in DNA [5]: 40%
